Experimental data published in patent publication US11096985B2, “Antimicrobial peptides, their variants and uses” (priority 2015, dated 2021).
Where a SMILES comes first, the peptide text is derived from it. [ ]: non-standard residue; d: D form.

Tests used:
[1] = system: clinical strains of C. glabrata; assay: MIC, clinical yeast strains, C. glabrata; format: cell-based, Candida glabrata; design: unit: μg/ml
Procedure, shortened: (§1)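 Broth microdilution in Mueller Hinton broth, inoculum adjusted to 5.0×10^5 cfu/ml, peptide tested at 0.125 to 128 μg/ml and incubated at 37° C. for 20 to 24 hours. MIC was the lowest concentration with no visible growth. Yeasts were tested in potato dextrose broth.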

[2] = system: clinical strains of Streptococcus pneumoniae; assay: MIC, clinical strains of Streptococcus pneumoniae; format: cell-based; design: unit: µg/mL; details: microdilution, Muller Hinton broth-cation adjusted, 0.02% BSA, 0.2% acetic acid
Procedure: (§2) Minimum inhibition concentrations (MICs) were determined against Escherichia coli (ATCC 25922), Staphylococcus aureus (ATCC 25923), Klebsiella pneumoniae (ATCC 10031) and Pseudomonas aeruginosa (ATCC 27853). Also clinical strains of E. coli, K. pneumoniae, E. cloacae, P. aeruginosa, Serratia marcescens, Proteus mirabilis, S. pneumoniae, Acinetobacter baumannii, A. johnsonii and S. aureus were used for MICs assays. Additionally, clinical strains of yeast including Candida albicans, C. glabrata, C. parapsilosis and C. quillermondiae were used. The susceptibility of these microorganisms to Chain peptides were determined using micro broth dilution assay. Colonies of the respective microorganism from Muller Hinton (MH) agar plates incubated overnight were suspended in MH broth media and final concentration of microorganism was adjusted to 5.0×10^5 cfu/ml. An aliquot of 10 μl of each Chain peptide, or gentamicin, tetracycline as reference antibiotics were added in differing concentrations along with 90 μl of bacterial suspension to 96 well polypropylene plates and incubated at 37° C. for 20 to 24 hours. Concentrations of Chain peptides and reference antibiotics ranged from 0.125 to 128 μg/ml and the MICs were recorded as the lowest concentration with no visual growth of bacteria. Similarly, antifungal MICs were tested in Potato dextrose broth.
(§3) Clinical strains of yeasts including Candida albicans, C. glabrata, C. parapsilosis and C. quillermondiae were also tested with the 12 Chain peptides. The minimum inhibitory concentration (MICs) varied between these peptides and are presented in Tables 4a, 4b, 4c and 5a, 5b, 5c. Peptides Chain 105, 201 and 308 are broad spectrum antimicrobials with MICs between 0.5-32 μg/ml against all the bacteria and yeasts tested, except Serratia marcescens and Proteus mirabilis, against which the MICs were between 64-128 μg/ml. Peptide Chain 306 has narrow spectrum activity against E.coli at 1 μg/ml and for the rest of the bacterial strains at >32 μg/ml (FIG. 10).

[3] = system: clinical strains of Pseudomonas aeruginosa; assay: MIC, clinical strains of P. aeruginosa; format: cell-based; design: unit: μg/ml; details: microdilution, Muller Hinton broth-cation adjusted, 0.02% BSA, 0.2% acetic acid
Procedure: as §2, §3

[4] = system: clinical strains of Enterobacter cloacae; assay: MIC, clinical strains of Enterobacter cloacae; format: cell-based; design: unit: μg/ml; details: microdilution, Muller Hinton broth-cation adjusted, 0.02% BSA, 0.2% acetic acid
Procedure: as §2, §3

[5] = system: clinical strains of Escherichia coli; assay: MIC, clinical strains of E. coli; format: cell-based; design: unit: μg/ml; details: microdilution, Muller Hinton broth-cation adjusted, 0.02% BSA, 0.2% acetic acid
Procedure: as §2, §3

[6] = system: clinical strains of Staphylococcus aureus; assay: MIC, clinical strains of S. aureus; format: cell-based; design: unit: μg/ml; details: microdilution, Muller Hinton broth-cation adjusted, 0.02% BSA, 0.2% acetic acid
Procedure: as §2, §3

[7] = system: clinical strains of Candida albicans; assay: MIC, clinical yeast strains, Candida albicans; format: cell-based; design: unit: μg/ml
Procedure, shortened: as §1

[8] = system: clinical strains of Proteus mirabilis; assay: MIC, clinical strains of Proteus mirabilis; format: cell-based; design: unit: µg/mL; details: microdilution, Muller Hinton broth-cation adjusted, 0.02% BSA, 0.2% acetic acid
Procedure: as §2, §3

[9] = system: clinical strains of Klebsiella pneumoniae; assay: MIC, clinical strains of K. pneumoniae; format: cell-based; design: unit: μg/ml; details: microdilution, Muller Hinton broth-cation adjusted, 0.02% BSA, 0.2% acetic acid
Procedure: as §2, §3

[10] = system: clinical strains of Serratia marcescens; assay: MIC, clinical strains of Serratia marcescens; format: cell-based; design: unit: µg/mL; details: microdilution, Muller Hinton broth-cation adjusted, 0.02% BSA, 0.2% acetic acid
Procedure: as §2, §3

[11] = system: clinical strains of C. parapsilosis; assay: MIC, clinical yeast strains, C. parapsilosis; format: cell-based, Candida parapsilosis; design: unit: μg/ml
Procedure, shortened: as §1

[12] = system: clinical strains of C. quillermondiae; assay: MIC, clinical yeast strains, C. quillermondiae; format: cell-based; details: C. quillermondiae clinical yeast strain 1
Procedure, shortened: as §1

CC(C)C[C@@H](NC(=O)[C@H](N)CCCNC(=N)N)C(=O)N[C@H](CCCCN)C(=O)N[C@H](Cc1c[nH]c2ccccc12)C(=O)N[C@H](Cc1ccccc1)C(=O)N[C@H](Cc1c[nH]c2ccccc12)C(=O)N[C@H](CC(C)C)C(=O)N[C@H](Cc1ccccc1)C(=O)N[C@H](CCCNC(=N)N)C(=O)N[C@H](CCCCN)C(=O)N[C@H](CCCNC(=N)N)C(=O)O [Chain307D] (H-[dR][dL][dK][dW][dF][dW][dL][dF][dR][dK][dR]-OH)
Minimum inhibitory concentration ([1]; C. glabrata clinical yeast strain 1): 8
Minimum inhibitory concentration ([1]; C. glabrata clinical yeast strain 2): 16
Minimum inhibitory concentration ([1]; C. glabrata clinical yeast strain 3): 8
Minimum inhibitory concentration ([1]; C. glabrata clinical yeast strain 4): 16
Minimum inhibitory concentration ([2]; Streptococcus pneumoniae clinical strain 1): 4
Minimum inhibitory concentration ([2]; Streptococcus pneumoniae clinical strain 2): 4
Minimum inhibitory concentration ([2]; Streptococcus pneumoniae clinical strain 3): 4
Minimum inhibitory concentration ([2]; Streptococcus pneumoniae clinical strain 4): 2
Minimum inhibitory concentration ([2]; Streptococcus pneumoniae clinical strain 5): 2
Minimum inhibitory concentration ([3]; Pseudomonas aeruginosa clinical strain 1): 16
Minimum inhibitory concentration ([3]; Pseudomonas aeruginosa clinical strain 2): 16
Minimum inhibitory concentration ([3]; Pseudomonas aeruginosa clinical strain 3): 16
Minimum inhibitory concentration ([3]; Pseudomonas aeruginosa clinical strain 4): 8
Minimum inhibitory concentration ([3]; Pseudomonas aeruginosa clinical strain 5): 8
Minimum inhibitory concentration ([4]; Enterobacter cloacae clinical strain 1): 4
Minimum inhibitory concentration ([4]; Enterobacter cloacae clinical strain 2): 8
Minimum inhibitory concentration ([4]; Enterobacter cloacae clinical strain 3): 4
Minimum inhibitory concentration ([4]; Enterobacter cloacae clinical strain 4): 4
Minimum inhibitory concentration ([4]; Enterobacter cloacae clinical strain 5): 4
Minimum inhibitory concentration ([5]; Escherichia coli clinical strain 1): 4
Minimum inhibitory concentration ([5]; Escherichia coli clinical strain 2): 4
Minimum inhibitory concentration ([5]; Escherichia coli clinical strain 3): 4
Minimum inhibitory concentration ([5]; Escherichia coli clinical strain 4): 2
Minimum inhibitory concentration ([5]; Escherichia coli clinical strain 5): 4
Minimum inhibitory concentration ([6]; Staphylococcus aureus clinical strain 1): 2
Minimum inhibitory concentration ([6]; Staphylococcus aureus clinical strain 2): 2
Minimum inhibitory concentration ([6]; Staphylococcus aureus clinical strain 3): 2
Minimum inhibitory concentration ([6]; Staphylococcus aureus clinical strain 4): 2
Minimum inhibitory concentration ([6]; Staphylococcus aureus clinical strain 5): 2
Minimum inhibitory concentration ([7]; Candida albicans clinical yeast strain 1): 16
Minimum inhibitory concentration ([7]; Candida albicans clinical yeast strain 2): 16
Minimum inhibitory concentration ([7]; Candida albicans clinical yeast strain 3): 16
Minimum inhibitory concentration ([7]; Candida albicans clinical yeast strain 4): 16
Minimum inhibitory concentration ([7]; Candida albicans clinical yeast strain 5): 16
Minimum inhibitory concentration ([8]; Proteus mirabilis clinical strain 1): >128
Minimum inhibitory concentration ([8]; Proteus mirabilis clinical strain 2): 128
Minimum inhibitory concentration ([8]; Proteus mirabilis clinical strain 3): 128
Minimum inhibitory concentration ([8]; Proteus mirabilis clinical strain 4): >128
Minimum inhibitory concentration ([8]; Proteus mirabilis clinical strain 5): >128
Minimum inhibitory concentration ([9]; Klebsiella pneumoniae clinical strain 1): 8
Minimum inhibitory concentration ([9]; Klebsiella pneumoniae clinical strain 2): 8
Minimum inhibitory concentration ([9]; Klebsiella pneumoniae clinical strain 3): 16
Minimum inhibitory concentration ([9]; Klebsiella pneumoniae clinical strain 4): 16
Minimum inhibitory concentration ([9]; Klebsiella pneumoniae clinical strain 5): 4
Minimum inhibitory concentration ([10]; Serratia marcescens clinical strain 1): >128
Minimum inhibitory concentration ([10]; Serratia marcescens clinical strain 2): >128
Minimum inhibitory concentration ([10]; Serratia marcescens clinical strain 3): 128
Minimum inhibitory concentration ([10]; Serratia marcescens clinical strain 4): >128
Minimum inhibitory concentration ([10]; Serratia marcescens clinical strain 5): >128
Minimum inhibitory concentration ([11]; C. parapsilosis clinical yeast strain 1): 16
Minimum inhibitory concentration ([11]; C. parapsilosis clinical yeast strain 2): 8
Minimum inhibitory concentration ([11]; C. parapsilosis clinical yeast strain 3): 8
Minimum inhibitory concentration ([11]; C. parapsilosis clinical yeast strain 4): 8
Minimum inhibitory concentration [12]: 4
